Experiments:
normal human melanocytes = experiment: Cell viability (MTT), melanocytes; type: cell-based; settings: Melanocyte, Melonocyte, 72 hours, read-out: IC50 of INT2-31, cell viability
Procedure: (§1) Cell viability (MTT) and CFSE Proliferation assay: Cells were plated in 96-well plates and let adhere overnight. After cell treatment, cell viability was measured by 3-(4,5-dimethylthiazol-2-yl)-2,5-diphenyl tetrazolium bromide (MTT) assay (CellTiter 96® Aqueous, Promega, Madison, Wis.).
Cell viability and detachment assays: After cells were treated with siRNA transfection, cell viability was measured by 3-(4,5-dimethylthiazol2-yl)-2,5-diphenyl tetrazolium bromide (MTT) assay (CellTiter 96® AQueous, Promega, Madison, Wis.). Briefly, 20 μl of the tetrazolium compound was added to each well. The cells were then incubated at 37° C. for 1 h. The plate was read at 490 nm with a plate reader to determine the viability. In detachment assays, detached and attached cells were harvested separately and counted in a hemocytometer. The percentage of detachment was calculated by dividing the number of detached cells by the total number of cells. Apoptosis assays: After treatment, attached and detached cells were collected, counted and prepared for terminal uridine deoxynucleotidyl transferase (TUNEL) assay by utilizing an APO-BRDU kit (BD Pharmingen, San Diego, Calif.) according to the manufacturer's instructions. Stained cells were analyzed with a fluorescence-activated cell sorting-Calibur flow cytometer (BD Biosciences). […] Apoptotic cells were also analyzed by Hoechst staining. […]

A375 melanoma cells = experiment: Cell viability (MTT), A375; type: cell-based, human
Procedure: as §1
Cell viability and detachment assays: After cells were treated with siRNA transfection, cell viability was measured by 3-(4,5-dimethylthiazol2-yl)-2,5-diphenyl tetrazolium bromide (MTT) assay (CellTiter 96® AQueous, Promega, Madison, Wis.). Briefly, 20 μl of the tetrazolium compound was added to each well. The cells were then incubated at 37° C. for 1 h. The plate was read at 490 nm with a plate reader to determine the viability. In detachment assays, detached and attached cells were harvested separately and counted in a hemocytometer. The percentage of detachment was calculated by dividing the number of detached cells by the total number of cells. Apoptosis assays: After treatment, attached and detached cells were collected, counted and prepared for terminal uridine deoxynucleotidyl transferase (TUNEL) assay by utilizing an APO-BRDU kit (BD Pharmingen, San Diego, Calif.) according to the manufacturer's instructions. Stained cells were analyzed with a fluorescence-activated cell sorting-Calibur flow cytometer (BD Biosciences). Calculation of the percentage of apoptotic cells in the sample was completed with CellQuest software (BD Biosciences). Apoptotic cells were also analyzed by Hoechst staining. Hoechst 33342 ([…]) was added to the fixed cells and the specimens were mounted on glass coverslips. The slides were viewed under the Zeiss microscope for apoptotic nuclei. The percent of apoptotic cells was calculated as the ratio of apoptotic cells to total number of cells.
In addition, the effect of INT2-31 on cell viability of esophageal, pancreatic and breast cancer cell lines was analyzed and the IC50 value for each cell line was determined, as shown in Table 1. […] Similar to melanoma results, INT2-31 inhibits viability more in cancer cells compared to normal cells. […]

C8161 melanoma cells = experiment: Detachment assay, C8161 cells; type: cell-based, human; settings: C8161, 5 μM, 72 h
Procedure: In detachment assays, detached and attached cells were harvested separately and counted in a hemocytometer. The percentage of detachment was calculated by dividing the number of detached cells by the total number of cells.
Detachment assay: Cells were plated with and without compound for 24, 48, and 72 h, and detached and attached cells were counted in a hemocytometer. The percent of detachment was calculated by dividing the number of detached cells by the total number of cells and experiments performed in triplicate. Apoptosis assays: After treatment, attached and detached cells were collected, counted and prepared for terminal uridine deoxynucleotidyl transferase (TUNEL) assay by utilizing an APO-BRDU kit (BD Pharmingen, San Diego, Calif.) and cells analyzed with a FACSCalibur cytometer (Becton Dickinson, San Jose, Calif.). In addition, apoptotic cells were analyzed with Hoechst 33342 staining (1 μg/ml). The percent of apoptotic cells was calculated as the ratio of apoptotic cells to total number of cells.

[1] = test system: Panc-1 orthotopic xenografts; experiment: Orthotopic pancreatic xenograft, Panc-1; type: in vivo, mice; parameters: dose or concentration left out as unconfirmed; settings: Panc-1, 21 days
From the text: For the orthotopic model of pancreatic cancer, the University of Florida IACUC approved the following protocol (IACUC Study #2000801506). The pancreatic cancer cell lines, Mia paca-2 and Panc-1 cells were stably transfected using luciferase-RFP (red fluorescent protein) reporter gene for in vivo imaging of the xenografts. Following expansion and sorting of RFP positive cells, cells were expanded in culture and 5×10^6 tumor cells were implanted into the pancreas of 20 mice. For intra-pancreatic implantation of cells, mice were anesthetized with Isoflurane using the ACS provided and maintained rodent anesthesia machine. Under sterille surgical conditions, via 1.0 cm incision of the skin, abdominal wall and peritonium, the spleen was retracted and cells were injected in […] into the tail of the pancreas using a 29-gauge needle. The abdominal wall and peritoneum was sutured using 5.0 absorbable surgical sutures and the skin was closed with medical glue (dermabond). Postoperative analgesia was 0.05 mg/kg of buprenorphine subcutaneously per 8-12 hours postoperatively.
Mice were hand restrained prior to intraperitoneal injections. Mice were euthanized 6 weeks after tumor innoculation and tumor and tissue collected. As described below, mice were imaged weekly with the IVIS lumina imager and tumor size was estimated by the bioluminescent signal. […]

[2] = Previous toxicity testing at 50 mg/kg/day; type: in vivo, mice; settings: 50 mg/kg/day i.p.

CSc1ncnc2c1ccn2C1O[C@H](COP(=O)(O)O)[C@@H](O)[C@H]1O (stereo partly drawn) [INT2-31, 4-(Methylthio)-7-(5-O-phosphono-D-ribofuranosyl)-{7H-Pyrrolo[2,3-d]pyrimidine}]
IC50 (normal human melanocytes): 97.3 µM | cell viability (in words) (A375 melanoma cells; A375, MTT): inhibited cell viability in a dose-dependent manner | IC50 (A375 melanoma cells; Homo sapiens, A-375, A375, 72 hours, read-out: IC50 of INT2-31, cell viability): 2.7 µM | cells detached from the plate (C8161 melanoma cells): 7% | growth of the orthotopic pancreatic xenografts [1]: sufficiently reduced the growth | toxicity [2]: no measurable toxicity

— patent US20120107323A1, “KINASE PROTEIN BINDING INHIBITORS” (University of Florida, priority 2009, published 2012)
